In the kinase profiling compilation of Christmann-Franck et al. (2016):
One block for each compound: values may come before it.

Assays:
Test in all cases: KINOMEscan competition binding
Conditions in all cases: compound 10.0 µM
MAP3K11 (human) = MAP3K11 (human) (UniProt Q16584)
NEK6 (human) = NEK6 (human) (UniProt Q9HC98)
SRPK1 (human) = SRPK1 (human) (UniProt Q96SB4)
CDK11B (human) = CDK11B (human) (UniProt P21127)
FRK (human) = FRK (human) (UniProt P42685)
NLK (human) = NLK (human) (UniProt Q9UBE8)
ANKK1 (human) = ANKK1 (human) (UniProt Q8NFD2)
PTK2B (human) = PTK2B (human) (UniProt Q14289)
PTK2B (human), sequence (Q14289 whole entry, looked up): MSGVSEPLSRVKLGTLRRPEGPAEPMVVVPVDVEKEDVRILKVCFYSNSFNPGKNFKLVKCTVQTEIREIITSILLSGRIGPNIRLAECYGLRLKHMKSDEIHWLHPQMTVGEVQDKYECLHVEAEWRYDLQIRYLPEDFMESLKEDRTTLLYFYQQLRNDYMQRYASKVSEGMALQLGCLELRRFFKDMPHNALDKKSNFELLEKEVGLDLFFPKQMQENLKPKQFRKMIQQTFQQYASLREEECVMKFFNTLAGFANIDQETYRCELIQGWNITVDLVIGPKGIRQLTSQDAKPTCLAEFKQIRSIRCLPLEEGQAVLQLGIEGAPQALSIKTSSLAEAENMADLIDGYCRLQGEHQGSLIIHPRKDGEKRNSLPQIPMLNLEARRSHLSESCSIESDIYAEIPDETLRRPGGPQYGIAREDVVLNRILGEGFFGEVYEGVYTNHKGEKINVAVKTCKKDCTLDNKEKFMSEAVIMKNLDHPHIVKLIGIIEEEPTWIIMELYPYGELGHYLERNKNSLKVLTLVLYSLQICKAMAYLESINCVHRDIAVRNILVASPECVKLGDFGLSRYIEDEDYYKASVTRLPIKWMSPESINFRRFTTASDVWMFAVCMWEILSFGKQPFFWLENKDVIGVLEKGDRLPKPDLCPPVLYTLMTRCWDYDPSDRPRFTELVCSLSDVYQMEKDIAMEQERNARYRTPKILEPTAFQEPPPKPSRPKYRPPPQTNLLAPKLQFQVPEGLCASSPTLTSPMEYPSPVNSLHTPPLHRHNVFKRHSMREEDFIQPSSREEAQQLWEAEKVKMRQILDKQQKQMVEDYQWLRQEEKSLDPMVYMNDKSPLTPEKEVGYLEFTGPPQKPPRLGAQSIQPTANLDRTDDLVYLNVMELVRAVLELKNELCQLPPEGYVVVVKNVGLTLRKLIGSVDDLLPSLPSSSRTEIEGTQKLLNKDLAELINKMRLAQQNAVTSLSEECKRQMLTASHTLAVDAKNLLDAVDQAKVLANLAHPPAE

[1] = system: ABL1 (human), P00519 [Y253F]
BTK (human) = BTK (human) (UniProt Q06187)
PHKG1 (human) = PHKG1 (human) (UniProt Q16816)
KDR (human) = KDR (human) (UniProt P35968)
FER (human) = FER (human) (UniProt P16591)
MAPK13 (human) = MAPK13 (human) (UniProt O15264)
MAPK13 (human), sequence (O15264 whole entry, looked up): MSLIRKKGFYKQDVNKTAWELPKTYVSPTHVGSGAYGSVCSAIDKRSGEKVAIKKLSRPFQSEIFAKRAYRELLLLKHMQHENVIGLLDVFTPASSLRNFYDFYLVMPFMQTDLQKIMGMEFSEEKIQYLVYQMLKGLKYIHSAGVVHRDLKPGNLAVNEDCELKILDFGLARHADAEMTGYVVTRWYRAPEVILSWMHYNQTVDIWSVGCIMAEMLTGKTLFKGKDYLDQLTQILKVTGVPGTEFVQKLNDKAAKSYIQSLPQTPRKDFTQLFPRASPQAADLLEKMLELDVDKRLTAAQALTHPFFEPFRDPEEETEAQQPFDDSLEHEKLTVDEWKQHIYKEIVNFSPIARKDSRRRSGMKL

[2] = target: JAK2 JH1 catalytic (human) (UniProt O60674)
CSF1R (human) = CSF1R (human) (UniProt P07333)
FLT1 (human) = FLT1 (human) (UniProt P17948)
PAK7 (human) = PAK7 (human) (UniProt Q9P286)
LATS2 (human) = LATS2 (human) (UniProt Q9NRM7)
EPHA4 (human) = EPHA4 (human) (UniProt P54764)
EPHB3 (human) = EPHB3 (human) (UniProt P54753)
MAPK9 (human) = MAPK9 (human) (UniProt P45984)
EIF2AK2 (human) = EIF2AK2 (human) (UniProt P19525)
HCK (human) = HCK (human) (UniProt P08631)
[3] = system: FGFR3 (human), P22607 [G697C]
BRSK1 (human) = BRSK1 (human) (UniProt Q8TDC3)
[4] = system: ABL1 (human), P00519 [F317L]
PAK6 (human) = PAK6 (human) (UniProt Q9NQU5)
ZAP70 (human) = ZAP70 (human) (UniProt P43403)
MAPK6 (human) = MAPK6 (human) (UniProt Q16659)
PRKACA (human) = PRKACA (human) (UniProt P17612)
PRKG2 (human) = PRKG2 (human) (UniProt Q13237)
CDC42BPA (human) = CDC42BPA (human) (UniProt Q5VT25)
CDC42BPA (human), sequence (Q5VT25 whole entry, looked up): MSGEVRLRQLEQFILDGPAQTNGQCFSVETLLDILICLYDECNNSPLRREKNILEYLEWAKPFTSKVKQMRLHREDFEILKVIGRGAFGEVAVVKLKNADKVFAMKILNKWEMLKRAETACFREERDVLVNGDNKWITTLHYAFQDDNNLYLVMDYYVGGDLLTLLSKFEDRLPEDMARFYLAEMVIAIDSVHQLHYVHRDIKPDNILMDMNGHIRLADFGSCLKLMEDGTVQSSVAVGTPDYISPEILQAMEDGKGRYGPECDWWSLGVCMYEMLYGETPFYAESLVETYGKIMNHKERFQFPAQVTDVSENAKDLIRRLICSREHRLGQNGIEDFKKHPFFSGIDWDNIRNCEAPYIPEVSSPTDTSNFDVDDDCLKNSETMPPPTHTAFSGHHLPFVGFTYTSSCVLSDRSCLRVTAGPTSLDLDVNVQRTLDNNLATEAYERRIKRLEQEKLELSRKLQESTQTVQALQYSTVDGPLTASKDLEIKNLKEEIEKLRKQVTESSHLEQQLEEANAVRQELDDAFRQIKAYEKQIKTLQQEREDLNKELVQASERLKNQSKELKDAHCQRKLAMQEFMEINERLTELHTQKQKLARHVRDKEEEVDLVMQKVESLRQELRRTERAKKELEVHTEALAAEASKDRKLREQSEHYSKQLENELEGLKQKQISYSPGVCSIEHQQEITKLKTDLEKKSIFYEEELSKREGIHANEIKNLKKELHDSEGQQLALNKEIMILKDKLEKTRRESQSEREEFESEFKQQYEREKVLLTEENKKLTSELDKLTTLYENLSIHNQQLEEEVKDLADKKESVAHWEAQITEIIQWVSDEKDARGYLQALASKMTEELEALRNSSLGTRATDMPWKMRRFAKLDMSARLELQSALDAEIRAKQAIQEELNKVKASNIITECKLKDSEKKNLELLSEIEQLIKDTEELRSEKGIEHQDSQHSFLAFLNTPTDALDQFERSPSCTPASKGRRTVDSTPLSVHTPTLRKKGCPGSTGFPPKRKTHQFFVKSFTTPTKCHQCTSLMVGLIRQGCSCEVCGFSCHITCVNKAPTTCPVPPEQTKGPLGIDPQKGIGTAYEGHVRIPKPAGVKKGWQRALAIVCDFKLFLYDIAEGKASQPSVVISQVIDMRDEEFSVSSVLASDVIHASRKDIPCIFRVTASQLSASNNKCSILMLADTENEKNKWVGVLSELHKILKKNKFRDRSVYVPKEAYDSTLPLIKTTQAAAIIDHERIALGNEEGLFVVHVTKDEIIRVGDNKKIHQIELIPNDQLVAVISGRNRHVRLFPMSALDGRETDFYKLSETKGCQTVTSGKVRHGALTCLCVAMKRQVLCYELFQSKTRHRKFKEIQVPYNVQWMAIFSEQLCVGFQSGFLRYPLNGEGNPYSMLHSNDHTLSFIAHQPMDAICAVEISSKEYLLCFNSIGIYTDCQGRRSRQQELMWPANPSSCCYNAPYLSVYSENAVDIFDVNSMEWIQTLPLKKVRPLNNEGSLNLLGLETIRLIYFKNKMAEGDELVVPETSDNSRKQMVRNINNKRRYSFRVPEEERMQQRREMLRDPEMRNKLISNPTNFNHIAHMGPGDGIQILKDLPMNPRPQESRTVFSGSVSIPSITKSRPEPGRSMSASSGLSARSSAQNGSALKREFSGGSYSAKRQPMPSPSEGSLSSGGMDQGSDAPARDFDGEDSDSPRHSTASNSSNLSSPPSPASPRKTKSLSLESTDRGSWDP

IKBKE (human) = IKBKE (human) (UniProt Q14164)
IKBKE (human), sequence (Q14164 whole entry, looked up): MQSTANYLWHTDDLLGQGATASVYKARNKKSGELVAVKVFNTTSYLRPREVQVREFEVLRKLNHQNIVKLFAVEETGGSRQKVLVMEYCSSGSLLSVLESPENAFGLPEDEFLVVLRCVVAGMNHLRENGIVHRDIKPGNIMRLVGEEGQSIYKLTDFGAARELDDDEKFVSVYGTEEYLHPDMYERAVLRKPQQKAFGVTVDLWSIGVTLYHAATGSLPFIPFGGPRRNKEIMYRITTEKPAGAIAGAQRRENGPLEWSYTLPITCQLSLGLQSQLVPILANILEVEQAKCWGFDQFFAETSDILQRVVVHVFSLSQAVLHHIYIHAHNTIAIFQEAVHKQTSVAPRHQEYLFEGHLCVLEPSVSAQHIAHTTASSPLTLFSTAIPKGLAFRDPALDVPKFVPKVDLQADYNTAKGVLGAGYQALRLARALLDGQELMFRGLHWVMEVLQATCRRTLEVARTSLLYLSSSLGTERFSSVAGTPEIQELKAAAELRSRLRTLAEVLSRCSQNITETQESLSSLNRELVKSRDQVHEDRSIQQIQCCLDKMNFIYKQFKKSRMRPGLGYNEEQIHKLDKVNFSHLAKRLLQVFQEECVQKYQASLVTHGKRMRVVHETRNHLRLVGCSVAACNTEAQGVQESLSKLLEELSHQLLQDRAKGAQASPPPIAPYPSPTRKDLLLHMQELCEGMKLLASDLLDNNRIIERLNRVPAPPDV

[5] = system: EGFR (human), P00533 [L858R]
FYN (human) = FYN (human) (UniProt P06241)
ULK1 (human) = ULK1 (human) (UniProt O75385)
NEK5 (human) = NEK5 (human) (UniProt Q6P3R8)
NEK5 (human), sequence (Q6P3R8 whole entry, looked up): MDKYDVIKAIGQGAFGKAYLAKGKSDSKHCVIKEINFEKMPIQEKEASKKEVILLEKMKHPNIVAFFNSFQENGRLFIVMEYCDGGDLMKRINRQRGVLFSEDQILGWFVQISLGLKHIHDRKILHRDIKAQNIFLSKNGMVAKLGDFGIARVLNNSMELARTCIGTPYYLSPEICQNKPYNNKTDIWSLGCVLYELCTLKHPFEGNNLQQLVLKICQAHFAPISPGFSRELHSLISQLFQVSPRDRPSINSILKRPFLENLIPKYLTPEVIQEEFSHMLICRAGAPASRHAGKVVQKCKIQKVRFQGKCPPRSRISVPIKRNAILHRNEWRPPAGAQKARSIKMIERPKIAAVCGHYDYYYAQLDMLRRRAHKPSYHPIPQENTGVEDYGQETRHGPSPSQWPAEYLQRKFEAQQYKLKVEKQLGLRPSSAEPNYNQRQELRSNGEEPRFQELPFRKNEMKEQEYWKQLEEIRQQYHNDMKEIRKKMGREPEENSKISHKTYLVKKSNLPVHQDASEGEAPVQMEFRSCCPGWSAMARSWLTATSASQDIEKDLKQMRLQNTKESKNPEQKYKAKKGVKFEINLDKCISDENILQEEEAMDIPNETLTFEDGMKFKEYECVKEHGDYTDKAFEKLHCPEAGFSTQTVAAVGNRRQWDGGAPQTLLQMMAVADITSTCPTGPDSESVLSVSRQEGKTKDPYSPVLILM

TGFBR1 (human) = TGFBR1 (human) (UniProt P36897)
PKN1 (human) = PKN1 (human) (UniProt Q16512)
FLT4 (human) = FLT4 (human) (UniProt P35916)
CAMK1G (human) = CAMK1G (human) (UniProt Q96NX5)

NEK6 (human), sequence (Q9HC98 whole entry, looked up): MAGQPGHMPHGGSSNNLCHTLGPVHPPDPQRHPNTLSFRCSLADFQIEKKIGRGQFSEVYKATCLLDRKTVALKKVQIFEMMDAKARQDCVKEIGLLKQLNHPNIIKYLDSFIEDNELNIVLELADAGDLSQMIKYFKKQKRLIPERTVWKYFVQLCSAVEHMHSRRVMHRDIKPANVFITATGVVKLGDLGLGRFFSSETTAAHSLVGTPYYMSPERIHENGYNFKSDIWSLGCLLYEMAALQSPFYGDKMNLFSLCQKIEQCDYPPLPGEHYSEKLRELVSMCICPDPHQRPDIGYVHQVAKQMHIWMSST

kinase still bound, per cent of control (MAP3K11 (human)): 100% | kinase still bound, per cent of control (NEK6 (human)): 100% | kinase still bound, per cent of control (SRPK1 (human)): 100% | kinase still bound, per cent of control (CDK11B (human)): 96% | kinase still bound, per cent of control (FRK (human)): 100% | kinase still bound, per cent of control (NLK (human)): 100% | kinase still bound, per cent of control (ANKK1 (human)): 32% | kinase still bound, per cent of control (PTK2B (human)): 100% | kinase still bound, per cent of control [1]: 100% | kinase still bound, per cent of control (BTK (human)): 100% | kinase still bound, per cent of control (PHKG1 (human)): 100% | kinase still bound, per cent of control (KDR (human)): 88% | kinase still bound, per cent of control (FER (human)): 62% | kinase still bound, per cent of control (MAPK13 (human)): 90% | kinase still bound, per cent of control [2]: 42% | kinase still bound, per cent of control (CSF1R (human)): 89% | kinase still bound, per cent of control (FLT1 (human)): 100% | kinase still bound, per cent of control (PAK7 (human)): 88% | kinase still bound, per cent of control (LATS2 (human)): 100% | kinase still bound, per cent of control (EPHA4 (human)): 100% | kinase still bound, per cent of control (EPHB3 (human)): 100% | kinase still bound, per cent of control (MAPK9 (human)): 100% | kinase still bound, per cent of control (EIF2AK2 (human)): 91% | kinase still bound, per cent of control (HCK (human)): 100% | kinase still bound, per cent of control [3]: 100% | kinase still bound, per cent of control (BRSK1 (human)): 97% | kinase still bound, per cent of control [4]: 100% | kinase still bound, per cent of control (PAK6 (human)): 100% | kinase still bound, per cent of control (ZAP70 (human)): 100% | kinase still bound, per cent of control (MAPK6 (human)): 78% | kinase still bound, per cent of control (PRKACA (human)): 100% | kinase still bound, per cent of control (PRKG2 (human)): 100% | kinase still bound, per cent of control (CDC42BPA (human)): 90% | kinase still bound, per cent of control (IKBKE (human)): 100% | kinase still bound, per cent of control [5]: 100% | kinase still bound, per cent of control (FYN (human)): 100% | kinase still bound, per cent of control (ULK1 (human)): 85% | kinase still bound, per cent of control (NEK5 (human)): 100% | kinase still bound, per cent of control (TGFBR1 (human)): 100% | kinase still bound, per cent of control (PKN1 (human)): 85% | kinase still bound, per cent of control (FLT4 (human)): 100% | kinase still bound, per cent of control (CAMK1G (human)): 100%
SMILES: CN1C(=O)c2ccccc2N(C)c2nc(NS(=O)(=O)c3ccc(N)cc3)ncc21

kinase still bound, per cent of control (MAP3K11 (human)): 100% | kinase still bound, per cent of control (NEK6 (human)): 100% | kinase still bound, per cent of control (SRPK1 (human)): 100% | kinase still bound, per cent of control (CDK11B (human)): 100% | kinase still bound, per cent of control (FRK (human)): 51% | kinase still bound, per cent of control (NLK (human)): 100% | kinase still bound, per cent of control (ANKK1 (human)): 91% | kinase still bound, per cent of control (PTK2B (human)): 100% | kinase still bound, per cent of control [1]: 100% | kinase still bound, per cent of control (BTK (human)): 78% | kinase still bound, per cent of control (PHKG1 (human)): 54% | kinase still bound, per cent of control (KDR (human)): 100% | kinase still bound, per cent of control (FER (human)): 80% | kinase still bound, per cent of control (MAPK13 (human)): 100% | kinase still bound, per cent of control [2]: 100% | kinase still bound, per cent of control (CSF1R (human)): 27% | kinase still bound, per cent of control (FLT1 (human)): 100% | kinase still bound, per cent of control (PAK7 (human)): 79% | kinase still bound, per cent of control (LATS2 (human)): 75% | kinase still bound, per cent of control (EPHA4 (human)): 95% | kinase still bound, per cent of control (EPHB3 (human)): 100% | kinase still bound, per cent of control (MAPK9 (human)): 87% | kinase still bound, per cent of control (EIF2AK2 (human)): 93% | kinase still bound, per cent of control (HCK (human)): 96% | kinase still bound, per cent of control [3]: 100% | kinase still bound, per cent of control (BRSK1 (human)): 84% | kinase still bound, per cent of control [4]: 45% | kinase still bound, per cent of control (PAK6 (human)): 100% | kinase still bound, per cent of control (ZAP70 (human)): 100% | kinase still bound, per cent of control (MAPK6 (human)): 100% | kinase still bound, per cent of control (PRKACA (human)): 100% | kinase still bound, per cent of control (PRKG2 (human)): 99% | kinase still bound, per cent of control (CDC42BPA (human)): 100% | kinase still bound, per cent of control (IKBKE (human)): 100% | kinase still bound, per cent of control [5]: 43% | kinase still bound, per cent of control (FYN (human)): 100% | kinase still bound, per cent of control (ULK1 (human)): 100% | kinase still bound, per cent of control (NEK5 (human)): 100% | kinase still bound, per cent of control (TGFBR1 (human)): 97% | kinase still bound, per cent of control (PKN1 (human)): 80% | kinase still bound, per cent of control (FLT4 (human)): 100% | kinase still bound, per cent of control (CAMK1G (human)): 100%
SMILES: COc1cc(N2CCN(C)CC2)ccc1Nc1ncc2c(n1)N(C)c1ccccc1N(C)C2=O

kinase still bound, per cent of control (MAP3K11 (human)): 100% | kinase still bound, per cent of control (NEK6 (human)): 30% | kinase still bound, per cent of control (SRPK1 (human)): 100% | kinase still bound, per cent of control (CDK11B (human)): 100% | kinase still bound, per cent of control (FRK (human)): 81% | kinase still bound, per cent of control (NLK (human)): 73% | kinase still bound, per cent of control (ANKK1 (human)): 100% | kinase still bound, per cent of control (PTK2B (human)): 57% | kinase still bound, per cent of control [1]: 100% | kinase still bound, per cent of control (BTK (human)): 78% | kinase still bound, per cent of control (PHKG1 (human)): 89% | kinase still bound, per cent of control (KDR (human)): 79% | kinase still bound, per cent of control (FER (human)): 74% | kinase still bound, per cent of control (MAPK13 (human)): 87% | kinase still bound, per cent of control [2]: 69% | kinase still bound, per cent of control (CSF1R (human)): 67% | kinase still bound, per cent of control (FLT1 (human)): 100% | kinase still bound, per cent of control (PAK7 (human)): 64% | kinase still bound, per cent of control (LATS2 (human)): 100% | kinase still bound, per cent of control (EPHA4 (human)): 98% | kinase still bound, per cent of control (EPHB3 (human)): 100% | kinase still bound, per cent of control (MAPK9 (human)): 51% | kinase still bound, per cent of control (EIF2AK2 (human)): 48% | kinase still bound, per cent of control (HCK (human)): 100% | kinase still bound, per cent of control [3]: 97% | kinase still bound, per cent of control (BRSK1 (human)): 100% | kinase still bound, per cent of control [4]: 63% | kinase still bound, per cent of control (PAK6 (human)): 92% | kinase still bound, per cent of control (ZAP70 (human)): 65% | kinase still bound, per cent of control (MAPK6 (human)): 100% | kinase still bound, per cent of control (PRKACA (human)): 100% | kinase still bound, per cent of control (PRKG2 (human)): 96% | kinase still bound, per cent of control (CDC42BPA (human)): 100% | kinase still bound, per cent of control (IKBKE (human)): 92% | kinase still bound, per cent of control [5]: 88% | kinase still bound, per cent of control (FYN (human)): 100% | kinase still bound, per cent of control (ULK1 (human)): 78% | kinase still bound, per cent of control (NEK5 (human)): 81% | kinase still bound, per cent of control (TGFBR1 (human)): 100% | kinase still bound, per cent of control (PKN1 (human)): 100% | kinase still bound, per cent of control (FLT4 (human)): 93% | kinase still bound, per cent of control (CAMK1G (human)): 57%
SMILES: COc1cc(N2CCC(O)CC2)ccc1Nc1ncc2c(n1)N1CCc3cccc(c31)C(=O)N2C
